According to patent US20240279302A1, “OLFACTORY RECEPTOR EXPRESSING METHOD AND RESPONSE MEASUREMENT METHOD” (Kao Corporation, priority 2021, published 2024):
pEC50: −log10 of the molar value.

Assays:
consensus OR2T5 = biological target: T1, consensus OR2T5 (Homo sapiens, UniProt Q6IEZ7, A76M/C55S/F147L/I190K/I217V/K41M/L14S/L223S/L224F/L249M/L87M/M19V/M302T/M75V/R23S/R24Q/R6W/S169T/S32C/S61T/T121A/T189M/V229I/V48I/V96I/W176R); assay: Luciferase assay, sulfur compounds; assay type: cell-based
T1 construct: expressed in transfected cells; host or cells: HEK293
T1 sequence (Q6IEZ7 with tags, fused parts or gaps R6W/L14S/M19V/R23S/R24Q/S32C/K41M/V48I/C55S/S61T/M75V/A76M/L87M/V96I/T121A/F147L/S169T/W176R/T189M/I190K/I217V/L223S/L224F/V229I/L249M/M302T): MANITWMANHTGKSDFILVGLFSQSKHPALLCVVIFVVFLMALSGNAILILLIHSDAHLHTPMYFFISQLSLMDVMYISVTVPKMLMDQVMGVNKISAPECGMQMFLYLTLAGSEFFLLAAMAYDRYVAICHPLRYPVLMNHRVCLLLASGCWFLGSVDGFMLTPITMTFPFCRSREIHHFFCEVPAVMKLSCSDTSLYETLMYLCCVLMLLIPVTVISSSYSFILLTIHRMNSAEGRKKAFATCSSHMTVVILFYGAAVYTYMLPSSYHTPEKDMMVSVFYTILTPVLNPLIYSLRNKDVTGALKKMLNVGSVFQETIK

consensus OR2T27 = biological target: T2, consensus OR2T27 (Homo sapiens, UniProt Q8NH04, A21T/G216A/G235R/H131R/I13V/I140V/K45M/L36V/R69M/S88G/T37I/V304A/V305L/V43T/V8M/W142L); assay: Luciferase assay, sulfur compounds; assay type: cell-based; conditions: in the presence of a copper ion
T2 construct: expressed in transfected cells; host or cells: HEK293
T2 sequence (Q8NH04 with tags, fused parts or gaps with the stated changes): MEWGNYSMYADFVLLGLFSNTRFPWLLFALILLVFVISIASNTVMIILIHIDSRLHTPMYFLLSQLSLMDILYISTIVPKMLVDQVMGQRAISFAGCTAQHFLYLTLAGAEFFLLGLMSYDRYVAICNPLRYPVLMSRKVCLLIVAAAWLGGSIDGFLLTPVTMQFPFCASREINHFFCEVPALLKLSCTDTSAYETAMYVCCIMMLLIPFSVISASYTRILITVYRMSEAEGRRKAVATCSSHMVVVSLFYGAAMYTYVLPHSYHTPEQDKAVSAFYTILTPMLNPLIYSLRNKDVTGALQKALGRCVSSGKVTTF

consensus OR4K17 = biological target: T3, consensus OR4K17 (Homo sapiens, UniProt Q8NGC6, A163V/E24Q/F120Y/F158L/G263S/I192T/I205M/I296T/I46V/K226R/L86V/P230S/S297A/V197I/V23I/V81M/V91T); assay: Luciferase assay, sulfur compounds; assay type: cell-based
T3 construct: expressed in transfected cells; host or cells: HEK293
T3 sequence (Q8NGC6 with tags, fused parts or gaps V23I/E24Q/I46V/V81M/L86V/V91T/F120Y/F158L/A163V/I192T/V197I/I205M/K226R/P230S/G263S/I296T/S297A): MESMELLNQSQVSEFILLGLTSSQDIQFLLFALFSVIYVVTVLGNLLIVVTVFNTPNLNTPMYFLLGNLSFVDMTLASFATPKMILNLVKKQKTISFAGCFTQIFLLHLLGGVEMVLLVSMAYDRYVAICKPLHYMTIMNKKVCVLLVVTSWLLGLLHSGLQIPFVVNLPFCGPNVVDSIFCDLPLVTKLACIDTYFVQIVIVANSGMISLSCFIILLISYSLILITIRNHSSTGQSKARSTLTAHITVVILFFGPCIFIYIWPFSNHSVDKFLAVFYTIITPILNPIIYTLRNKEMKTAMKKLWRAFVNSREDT

consensus OR6B1 = biological target: T4, consensus OR6B1 (Homo sapiens, UniProt O95007, C165R/C227R/F212S/I201V/I253T/L3V/L50Q/L96H/N89S/S282A/T195A/V262A); assay: Luciferase assay, sulfur compounds; assay type: cell-based; conditions: in the presence of a copper ion
T4 construct: expressed in transfected cells; host or cells: HEK293
T4 sequence (O95007 whole entry L3V/L50Q/N89S/L96H/C165R/T195A/I201V/F212S/C227R/I253T/V262A/S282A): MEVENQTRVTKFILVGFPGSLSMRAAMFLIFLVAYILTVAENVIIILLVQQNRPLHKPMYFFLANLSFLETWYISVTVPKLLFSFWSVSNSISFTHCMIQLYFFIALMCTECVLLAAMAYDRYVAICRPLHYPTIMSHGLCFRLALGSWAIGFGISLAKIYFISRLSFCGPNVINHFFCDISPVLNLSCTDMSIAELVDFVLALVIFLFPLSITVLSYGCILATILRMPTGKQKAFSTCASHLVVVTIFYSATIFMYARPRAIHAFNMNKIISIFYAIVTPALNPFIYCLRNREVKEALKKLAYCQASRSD

OR2L13 = OR2L13 (Homo sapiens, UniProt Q8N349); conditions: JP-A-2020-510436; cited from earlier work
OR2L13, sequence (Q8N349 whole entry): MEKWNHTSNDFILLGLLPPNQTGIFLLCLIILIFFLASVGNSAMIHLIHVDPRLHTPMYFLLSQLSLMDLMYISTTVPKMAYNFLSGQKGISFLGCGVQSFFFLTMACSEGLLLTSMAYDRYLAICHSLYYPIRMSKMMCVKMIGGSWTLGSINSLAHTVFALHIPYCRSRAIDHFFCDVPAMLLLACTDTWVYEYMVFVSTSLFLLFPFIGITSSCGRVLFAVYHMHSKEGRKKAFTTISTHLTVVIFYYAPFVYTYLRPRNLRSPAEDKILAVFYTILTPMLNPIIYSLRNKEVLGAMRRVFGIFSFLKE

OR4C15 = OR4C15 (Homo sapiens, UniProt Q8NGM1); conditions: JP-A-2020-510436; cited from earlier work
OR4C15, sequence (Q8NGM1 whole entry): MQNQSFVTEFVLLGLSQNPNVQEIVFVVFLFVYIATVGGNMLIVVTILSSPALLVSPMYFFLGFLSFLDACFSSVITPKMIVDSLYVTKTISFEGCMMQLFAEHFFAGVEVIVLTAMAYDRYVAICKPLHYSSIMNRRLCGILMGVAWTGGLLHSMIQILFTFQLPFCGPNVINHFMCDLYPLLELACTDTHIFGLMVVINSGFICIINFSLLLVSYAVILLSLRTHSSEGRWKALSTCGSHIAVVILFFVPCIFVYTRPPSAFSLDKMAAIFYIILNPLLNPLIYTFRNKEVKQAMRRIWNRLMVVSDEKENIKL

OR2T1 = conditions: in the presence of a metal ion (JP-B-6122181); cited from earlier work
[1] = in the presence of a copper ion

response of consensus OR6B1 (consensus OR6B1)	SMILES	response of consensus OR2T5 (consensus OR2T5; [1])	response of consensus OR2T27 (consensus OR2T27)	pEC50 (consensus OR4K17)	dose dependence of the response of consensus OR4K17 (consensus OR4K17; [1])	response of consensus OR4K17 (consensus OR4K17; [1])	response of OR2L13 (OR2L13)	response of OR4C15 (OR4C15)	response of OR2T1 (OR2T1)	EC50 (consensus OR2T5; consensus OR2T5, 30 μM CuCl2) [µM]	dose dependence of the response of consensus OR2T5 (consensus OR2T5; [1])
	CSSC [dimethyl disulfide]	responded	responded	3.25	dose-dependent response	responded					
responded	CSSSC [dimethyl trisulfide]						respond	respond			
	CS [methyl mercaptan]	responded	responded			responded			respond	217	dose-dependent response
